Reference: PMC11542607 (RSC Advances, 2024)

How the values were obtained:
[1] = test system: HCT116 (colorectal carcinoma); assay: MTT cytotoxicity assay, HCT-116; format: cell-based; details: Homo sapiens, HCT-116, read-out: IC50 HCT-116
[2] = test system: HeLa (cervical epithelioid carcinoma); assay: MTT cytotoxicity assay, HeLa; format: cell-based; details: Homo sapiens, read-out: IC50 HeLa
MCF-7 (breast cancer) = assay: MTT cytotoxicity assay, MCF-7; format: cell-based; details: Homo sapiens, MCF7, read-out: IC50 MCF-7
[3] = test system: WI-38 normal fibroblast cell line; assay: Cytotoxicity towards normal human cells; format: cell-based; details: WI-38, read-out: IC50 WI-38
EGFR = EGFR (Homo sapiens, UniProt P00533); assay: EGFR enzyme inhibition assay; format: biochemical
Chain of EGFR (P00533 25-1210): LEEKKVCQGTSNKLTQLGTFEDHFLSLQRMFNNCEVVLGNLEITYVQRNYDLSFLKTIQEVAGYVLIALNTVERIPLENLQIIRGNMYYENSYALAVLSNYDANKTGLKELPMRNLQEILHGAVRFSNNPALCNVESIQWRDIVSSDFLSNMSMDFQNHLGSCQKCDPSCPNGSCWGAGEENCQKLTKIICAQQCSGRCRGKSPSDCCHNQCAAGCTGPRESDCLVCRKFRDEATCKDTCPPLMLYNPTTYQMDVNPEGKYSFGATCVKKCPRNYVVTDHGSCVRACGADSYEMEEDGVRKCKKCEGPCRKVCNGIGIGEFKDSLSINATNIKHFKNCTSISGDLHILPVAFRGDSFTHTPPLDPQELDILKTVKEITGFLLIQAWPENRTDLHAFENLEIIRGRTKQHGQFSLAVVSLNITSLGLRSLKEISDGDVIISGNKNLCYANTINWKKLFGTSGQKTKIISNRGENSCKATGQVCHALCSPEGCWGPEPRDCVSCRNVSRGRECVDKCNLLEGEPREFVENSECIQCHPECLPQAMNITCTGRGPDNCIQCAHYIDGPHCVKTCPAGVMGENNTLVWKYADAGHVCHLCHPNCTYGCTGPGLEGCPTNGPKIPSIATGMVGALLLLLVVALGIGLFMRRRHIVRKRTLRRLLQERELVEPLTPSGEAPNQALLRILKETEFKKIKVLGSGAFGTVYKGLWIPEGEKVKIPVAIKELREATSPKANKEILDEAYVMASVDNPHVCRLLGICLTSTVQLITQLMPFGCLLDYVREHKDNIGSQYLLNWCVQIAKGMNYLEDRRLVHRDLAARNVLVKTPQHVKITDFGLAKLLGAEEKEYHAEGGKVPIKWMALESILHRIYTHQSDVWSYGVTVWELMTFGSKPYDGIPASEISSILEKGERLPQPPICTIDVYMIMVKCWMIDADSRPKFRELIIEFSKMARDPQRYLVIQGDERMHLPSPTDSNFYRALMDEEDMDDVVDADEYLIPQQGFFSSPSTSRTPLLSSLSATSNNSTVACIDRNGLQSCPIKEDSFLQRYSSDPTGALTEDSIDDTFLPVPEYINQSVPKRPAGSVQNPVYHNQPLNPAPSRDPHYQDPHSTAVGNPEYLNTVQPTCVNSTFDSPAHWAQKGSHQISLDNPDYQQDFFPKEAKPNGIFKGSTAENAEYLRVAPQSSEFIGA

TOP-II = TOP-II (Homo sapiens, UniProt P11388); assay: TOP-II enzyme inhibition assay; format: biochemical
Chain of TOP-II (P11388 whole entry): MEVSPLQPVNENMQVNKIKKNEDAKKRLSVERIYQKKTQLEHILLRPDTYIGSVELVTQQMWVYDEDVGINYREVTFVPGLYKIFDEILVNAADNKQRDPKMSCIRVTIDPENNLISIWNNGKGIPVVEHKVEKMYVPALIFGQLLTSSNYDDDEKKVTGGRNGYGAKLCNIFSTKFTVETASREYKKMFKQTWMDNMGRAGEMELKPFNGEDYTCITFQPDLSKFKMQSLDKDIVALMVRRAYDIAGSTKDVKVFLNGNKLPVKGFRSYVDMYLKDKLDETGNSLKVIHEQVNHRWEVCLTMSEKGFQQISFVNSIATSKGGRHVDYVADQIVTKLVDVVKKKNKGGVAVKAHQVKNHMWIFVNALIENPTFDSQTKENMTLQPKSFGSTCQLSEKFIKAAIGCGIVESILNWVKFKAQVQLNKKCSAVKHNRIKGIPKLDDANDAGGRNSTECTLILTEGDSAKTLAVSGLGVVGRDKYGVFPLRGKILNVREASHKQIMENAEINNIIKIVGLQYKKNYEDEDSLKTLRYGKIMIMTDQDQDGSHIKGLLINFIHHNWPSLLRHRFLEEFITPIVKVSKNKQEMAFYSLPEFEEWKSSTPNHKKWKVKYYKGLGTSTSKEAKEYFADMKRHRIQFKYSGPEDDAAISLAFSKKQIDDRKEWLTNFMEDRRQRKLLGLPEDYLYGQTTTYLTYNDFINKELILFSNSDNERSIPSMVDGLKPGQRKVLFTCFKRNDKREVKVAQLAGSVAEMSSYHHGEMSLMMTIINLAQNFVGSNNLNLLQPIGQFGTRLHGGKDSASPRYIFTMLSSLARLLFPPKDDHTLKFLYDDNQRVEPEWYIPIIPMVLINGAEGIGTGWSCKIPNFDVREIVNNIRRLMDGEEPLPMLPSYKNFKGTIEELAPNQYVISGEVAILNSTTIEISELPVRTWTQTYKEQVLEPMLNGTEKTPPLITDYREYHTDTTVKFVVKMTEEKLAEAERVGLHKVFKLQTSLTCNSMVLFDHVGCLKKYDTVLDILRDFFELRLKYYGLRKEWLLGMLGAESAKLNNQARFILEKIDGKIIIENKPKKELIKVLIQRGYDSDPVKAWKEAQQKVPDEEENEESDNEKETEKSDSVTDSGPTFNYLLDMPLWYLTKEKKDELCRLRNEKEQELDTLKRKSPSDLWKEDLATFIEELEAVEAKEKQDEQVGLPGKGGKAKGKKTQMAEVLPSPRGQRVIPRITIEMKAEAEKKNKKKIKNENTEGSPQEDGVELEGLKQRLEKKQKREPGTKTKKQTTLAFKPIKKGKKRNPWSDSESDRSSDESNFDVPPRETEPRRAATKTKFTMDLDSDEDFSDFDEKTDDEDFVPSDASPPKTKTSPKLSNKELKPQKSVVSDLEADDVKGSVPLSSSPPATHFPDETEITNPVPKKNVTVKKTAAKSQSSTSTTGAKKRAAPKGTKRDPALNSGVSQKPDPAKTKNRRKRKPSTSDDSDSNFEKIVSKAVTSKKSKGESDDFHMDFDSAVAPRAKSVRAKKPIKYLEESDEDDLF

aromatase (ARO) = molecular target: T1, aromatase (ARO) (Homo sapiens, UniProt P11511); assay: Aromatase enzyme inhibition assay; format: biochemical
T1 sequence (P11511 1-503): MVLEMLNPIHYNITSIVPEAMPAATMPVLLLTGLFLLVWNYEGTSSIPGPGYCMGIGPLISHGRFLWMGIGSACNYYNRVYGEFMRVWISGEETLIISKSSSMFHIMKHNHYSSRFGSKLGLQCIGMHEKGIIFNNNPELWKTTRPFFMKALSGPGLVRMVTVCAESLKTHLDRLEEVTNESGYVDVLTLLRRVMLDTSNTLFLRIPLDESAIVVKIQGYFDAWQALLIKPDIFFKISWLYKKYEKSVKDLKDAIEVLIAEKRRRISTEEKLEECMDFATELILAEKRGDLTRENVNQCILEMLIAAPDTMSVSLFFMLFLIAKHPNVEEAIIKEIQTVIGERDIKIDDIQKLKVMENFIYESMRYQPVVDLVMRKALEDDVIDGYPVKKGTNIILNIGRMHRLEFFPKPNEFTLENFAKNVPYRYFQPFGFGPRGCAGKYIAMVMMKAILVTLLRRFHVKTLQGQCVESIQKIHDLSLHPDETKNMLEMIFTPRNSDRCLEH

HER-2 = HER-2 (Homo sapiens, UniProt P04626); assay: biochemical
Chain of HER-2 (P04626 23-1255): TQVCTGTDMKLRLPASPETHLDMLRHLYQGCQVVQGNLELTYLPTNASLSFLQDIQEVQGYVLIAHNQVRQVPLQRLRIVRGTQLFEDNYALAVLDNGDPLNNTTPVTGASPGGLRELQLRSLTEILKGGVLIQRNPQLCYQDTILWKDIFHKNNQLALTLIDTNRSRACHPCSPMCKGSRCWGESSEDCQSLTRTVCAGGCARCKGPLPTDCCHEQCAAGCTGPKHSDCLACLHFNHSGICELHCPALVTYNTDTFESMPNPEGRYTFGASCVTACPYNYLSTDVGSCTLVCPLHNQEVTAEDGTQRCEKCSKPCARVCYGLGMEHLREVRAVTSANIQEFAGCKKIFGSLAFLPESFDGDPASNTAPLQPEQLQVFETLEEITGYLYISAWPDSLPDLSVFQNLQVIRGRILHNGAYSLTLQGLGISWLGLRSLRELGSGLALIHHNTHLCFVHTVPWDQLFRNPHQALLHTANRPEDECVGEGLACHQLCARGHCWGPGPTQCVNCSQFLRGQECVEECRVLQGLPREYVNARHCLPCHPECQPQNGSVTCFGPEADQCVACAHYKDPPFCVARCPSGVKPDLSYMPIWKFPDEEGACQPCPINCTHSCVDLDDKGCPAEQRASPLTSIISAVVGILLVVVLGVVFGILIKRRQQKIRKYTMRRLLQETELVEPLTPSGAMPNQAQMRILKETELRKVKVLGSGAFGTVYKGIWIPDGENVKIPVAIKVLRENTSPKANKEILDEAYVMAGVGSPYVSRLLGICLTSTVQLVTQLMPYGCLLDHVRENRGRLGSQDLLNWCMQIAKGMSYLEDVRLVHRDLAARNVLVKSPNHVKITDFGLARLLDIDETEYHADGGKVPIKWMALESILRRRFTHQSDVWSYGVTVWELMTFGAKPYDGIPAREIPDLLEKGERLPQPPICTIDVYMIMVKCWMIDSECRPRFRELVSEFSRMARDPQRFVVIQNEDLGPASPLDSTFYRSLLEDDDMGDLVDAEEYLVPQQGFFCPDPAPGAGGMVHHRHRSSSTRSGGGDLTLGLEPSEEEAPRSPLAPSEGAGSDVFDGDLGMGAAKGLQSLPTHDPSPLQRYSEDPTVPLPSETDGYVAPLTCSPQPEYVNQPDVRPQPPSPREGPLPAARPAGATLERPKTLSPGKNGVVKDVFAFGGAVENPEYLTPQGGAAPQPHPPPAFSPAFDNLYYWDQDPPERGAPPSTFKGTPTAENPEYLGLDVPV

MCF-7 cells = assay: Flow cytometry cell cycle analysis; format: cell-based, human
[4] = test system: DMBA-induced breast cancer; assay: In vivo DMBA-induced breast cancer model; set-up: species or system mice; details: day 20; for Final tumor volume: untreated DMBA group approximately 2.4 mm^3
[5] = Body weight in DMBA-induced breast cancer model; format: in vivo; details: DMBA model mice; for Body weight at day 20: control 28.91 g, DMBA 35.2 g; for Body weight at start: start of 20 days period, control 20.51 g, DMBA 18.8 g
caspase-3 = assay: Caspase-3 immunostaining of mammary tissue in DMBA model; format: in vivo, mice; details: for caspase-3 positive cells: immunostaining, mean ± standard error (n = 5), control 4.5 ± 0.2, DMBA 0.5 ± 0.1

SMILES	IC50 [1] [µM]	IC50 [2] [µM]	IC50 (MCF-7 (breast cancer)) [µM]	IC50 [3] [µM]	other results
Cc1cc(N2CCN(C(=O)CN3CCOCC3)CC2)n2ncnc2n1 [Compound 7e, 1-(4-(5-Methyl-[1,2,4]triazolo[1,5-a]pyrimidin-7-yl)piperazin-1-yl)-2-morpholinoethanone]	88.4 ± 4.5	78.5 ± 4.2	84.7 ± 4.1	26.3 ± 1.9	–
Cc1cc(Sc2nnc(NC(=O)Nc3ccccc3)s2)n2ncnc2n1 [Compound 9a, 1-(5-((5-Methyl-[1,2,4]triazolo[1,5-a]pyrimidin-7-yl)thio)-1,3,4-thiadiazol-2-yl)-3-phenylurea]	44.4 ± 2.6	25.2 ± 2	37.2 ± 2.3	48.4 ± 2.6	–
Cc1cc(Sc2nnc(NC(=O)Nc3ccc(Cl)cc3)s2)n2ncnc2n1 [Compound 9b, 1-(4-Chlorophenyl)-3-(5-((5-methyl-[1,2,4]triazolo[1,5-a]pyrimidin-7-yl)thio)-1,3,4-thiadiazol-2-yl)urea]	> 100	87.7 ± 4.4	> 100	64.7 ± 3.5	–
Cc1ccc(NC(=O)Nc2nnc(Sc3cc(C)nc4ncnn34)s2)cc1 [Compound 9c, 1-(5-((5-Methyl-[1,2,4]triazolo[1,5-a]pyrimidin-7-yl)thio)-1,3,4-thiadiazol-2-yl)-3-(p-tolyl)urea]	58.5 ± 3.3	51.9 ± 2.8	46.1 ± 2.5	18.1 ± 1.3	–
COc1ccc(NC(=O)Nc2nnc(Sc3cc(C)nc4ncnn34)s2)cc1 [Compound 9d, 1-(4-Methoxyphenyl)-3-(5-((5-methyl-[1,2,4]triazolo[1,5-a]pyrimidin-7-yl)thio)-1,3,4-thiadiazol-2-yl)urea]	> 100	82.4 ± 4.1	92.4 ± 4.4	> 100	–
Cc1cc(Sc2nc(-c3ccc(Br)cc3)c(C#N)c(=O)[nH]2)n2ncnc2n1 [Compound 11a, 4-(4-Bromophenyl)-2-((5-methyl-[1,2,4]triazolo[1,5-a]pyrimidin-7-yl)thio)-6-oxo-1,6-dihydropyrimidine-5-carbonitrile]	41 ± 2.4	33.4 ± 2.3	30.5 ± 2.1	75.9 ± 4.1	–
Cc1cc(Sc2nc(-c3ccc(Cl)cc3)c(C#N)c(=O)[nH]2)n2ncnc2n1 [Compound 11b, 4-(4-Chlorophenyl)-2-((5-methyl-[1,2,4]triazolo[1,5-a]pyrimidin-7-yl)thio)-6-oxo-1,6-dihydropyrimidine-5-carbonitrile]	12.6 ± 1	17.5 ± 1.4	8.39 ± 0.6	56.2 ± 3	–
Cc1ccc(-c2nc(Sc3cc(C)nc4ncnn34)[nH]c(=O)c2C#N)cc1 [Compound 11c, 2-((5-Methyl-[1,2,4]triazolo[1,5-a]pyrimidin-7-yl)thio)-6-oxo-4-(p-tolyl)-1,6-dihydropyrimidine-5-carbonitrile]	21.5 ± 1.5	19.2 ± 1.6	9.15 ± 0.7	45 ± 2.4	–
COc1ccc(-c2nc(Sc3cc(C)nc4ncnn34)[nH]c(=O)c2C#N)cc1 [Compound 11d, 4-(4-Methoxyphenyl)-2-((5-methyl-[1,2,4]triazolo[1,5-a]pyrimidin-7-yl)thio)-6-oxo-1,6-dihydropyrimidine-5-carbonitrile]	47.9 ± 2.7	63.4 ± 3.6	34.6 ± 2.3	71.2 ± 3.9	–
COc1ccc(-c2nc(Sc3cc(C)nc4ncnn34)[nH]c(=O)c2C#N)cc1OC [Compound 11e, 4-(3,4-Dimethoxyphenyl)-2-((5-methyl-[1,2,4]triazolo[1,5-a]pyrimidin-7-yl)thio)-6-oxo-1,6-dihydropyrimidine-5-carbonitrile]	8.89 ± 0.8	13.6 ± 1.1	5.92 ± 0.3	60.3 ± 3.3	IC50 (EGFR): 246 nM; IC50 (TOP-II): 36.7 µM; IC50 (aromatase (ARO)): 380 nM; IC50 (HER-2): 116 nM
Cc1cc(Sc2nc(-c3cccc(Br)c3)c(C#N)c(=O)[nH]2)n2ncnc2n1 [Compound 11f, 4-(3-Bromophenyl)-2-((5-methyl-[1,2,4]triazolo[1,5-a]pyrimidin-7-yl)thio)-6-oxo-1,6-dihydropyrimidine-5-carbonitrile]	31.2 ± 2.2	35.9 ± 2.2	22.2 ± 1.6	77.3 ± 4.3	–
Cc1cc(Sc2nnc(-c3ccccc3)o2)n2ncnc2n1 [Compound 13a, 2-((5-Methyl-[1,2,4]triazolo[1,5-a]pyrimidin-7-yl)thio)-5-phenyl-1,3,4-oxadiazole]	15 ± 1.2	23.6 ± 1.9	18.6 ± 1.3	91.4 ± 4.9	–
Cc1ccc(-c2nnc(Sc3cc(C)nc4ncnn34)o2)cc1 [Compound 13b, 2-((5-Methyl-[1,2,4]triazolo[1,5-a]pyrimidin-7-yl)thio)-5-(p-tolyl)-1,3,4-oxadiazole]	29.3 ± 2	39 ± 2.4	27.8 ± 2	83.5 ± 4.5	–
Cc1cc(Sc2nnc(-c3ccc([N+](=O)[O-])cc3)o2)n2ncnc2n1 [Compound 13c, 2-((5-Methyl-[1,2,4]triazolo[1,5-a]pyrimidin-7-yl)thio)-5-(4-nitrophenyl)-1,3,4-oxadiazole]	6.1 ± 0.5	10.3 ± 0.9	2.42 ± 0.1	38.6 ± 2.2	IC50 (EGFR): 87 nM; IC50 (TOP-II): 31.6 µM; IC50 (aromatase (ARO)): 156 nM; Cell cycle distribution G2-M (MCF-7 cells; DMSO control 18.18): 10.32%; Cell cycle distribution S (MCF-7 cells; DMSO control 24.83): 37.01%; Cell cycle distribution G0-G1 (MCF-7 cells; DMSO control 56.99): 52.67%; Reduction in final tumor volume compared to untreated DMBA group [4]: 62.5%; Final tumor volume [4]: about 0.9 mm^3; Body weight at day 20 [5]: 30.6 g; Body weight at start [5]: 20.2 g; caspase-3 positive cells (caspase-3): 2.3 ± 0.3 cells; Increase of caspase-3 positive cells from the DMBA group (caspase-3; mouse, in vivo): 360%; Share of the control's apoptotic activity (caspase-3) (caspase-3; mouse, in vivo): about 51%; IC50 (HER-2): 78 nM
Cc1cc(Sc2nnc(-c3ccc(Cl)cc3)o2)n2ncnc2n1 [Compound 13d, 2-(4-Chlorophenyl)-5-((5-methyl-[1,2,4]triazolo[1,5-a]pyrimidin-7-yl)thio)-1,3,4-oxadiazole]	24.8 ± 1.8	42.9 ± 2.5	14.2 ± 1.1	66.1 ± 3.8	–
Cc1cc(Sc2nnc(-c3ccc(Br)cc3)o2)n2ncnc2n1 [Compound 13e, 2-(4-Bromophenyl)-5-((5-methyl-[1,2,4]triazolo[1,5-a]pyrimidin-7-yl)thio)-1,3,4-oxadiazole]	55.1 ± 3.5	57.4 ± 3.2	42.6 ± 2.4	> 100	–
COc1cccc2c1C(=O)c1c(O)c3c(c(O)c1C2=O)C[C@@](O)(C(=O)CO)C[C@@H]3O[C@H]1C[C@H](N)[C@H](O)[C@H](C)O1 [DOX, Doxorubicin, reference compound]	–	–	–	–	IC50 (TOP-II): 34 µM; Reduction in final tumor volume compared to untreated DMBA group [4]: 75%; Final tumor volume [4]: approximately 0.6 mm^3; Body weight at day 20 [5]: 31.8 g; Body weight at start [5]: 19.8 g; caspase-3 positive cells (caspase-3): 4.0 ± 0.2 cells; Decrease of caspase-3 positive cells from the control (caspase-3; mouse, in vivo): 11%; Increase of caspase-3 positive cells from the DMBA group (caspase-3; mouse, in vivo): 700%
